Reference: patent publication US12324818B2, “Generation of alveolar epithelial type 1 (AT1) cells” (TRUSTEES OF BOSTON UNIVERSITY, priority 2022, dated 2025)

B1: keratinocyte growth factor (KGF) protein (protein, UniProt P21781 32-194, looked up)
Fibroblast growth factor 7: CNDMTPEQMATNVNCSSPERHTRSYDYMEGGDIRVRRLFCRTQWYLRIDKRGKVKGTQEMKNNYNIMEIRTVAVGIVAIKGVESEFYLAMNKEGKLYAKKECNEDCNFKELILENHYNTYASAKWTHNGGEMFVALNQKGIPVRGKKTKKEQKTAHFLPMAIT
notes: recombinant human keratinocyte growth factor

Legend:
Assay type in all cases: cell-based, human
[1] = test system: iAT2s; test: AGERtdTomato reporter induction in BU3 NGAT iAT2s (flow cytometry, live imaging); settings: for effect on AGERtdTomato percentage and MFI: media containing L
Source text: FIG. 5A) BU3 NGAT iAT2s were passaged as usual into 3D Matrigel with CK+DCI+RI medium for 3 days. Medium was then kept the same or switched to LATS inhibitor-based media. CK DCI+L, DCI, or L DCI. (C=Chir, K=rhKGF, L=LATS-IN-1; “DCI” as defined in FIG. 2). FIG. 5B) Representative live fluorescence microscopy of iAT2s (BU3 NGAT clone) at 9 days after changing to the indicated medium, either without (FIG. 5B) or with (FIG. 5C) YAP5SA transduction (Scale bars=500 um in B; 50 um in FIG. 5C). FIG. 5D) Representative flow cytometry plots of NKX2-1GFP and AGERtdTomato 9 days post after changing to cach indicate medium. FIG. 5E) Cell counts and flow cytometry quantification of AGER tdTomato+ percentage and Mean Fluorescence Intensity (MFI) 9 days post medium change. One way ANOVA, N=3 per condition. FIG. 5F) Gene expression of AT1 and AT2 markers by whole well RT-qPCR. (1 way ANOVA, N=3 per condition). FIG. 5G) Whole mount immunofluorescence microscopy of BU3 NGAT organoids in L+DCI. Scale bar=50 um. FIG. 5H) Primary adult human AT2 cells (1° AT2s) were cultured as described 5 and 7 days post plating, medium was changed to published, human-serum containing Alveolar Differentiation Media (ADM) or L+DCI. Whole well RT-qPCR of selected genes 7 days post medium change. 1 way ANOVA, N=3 per condition. FIG. 5I) Experimental schematic: BU3 NGAT iAT1s were grown in L+DCI for 10 days, sorted on AGERtdTomato, and then plated in 3D Matrigel in either L+DCI or CK+DCI. Outgrowths of sorted cells were analyzed after an additional 9 days. FIG. 5J) Representative flow cytometry plots of AGERtdTomato+ outgrowth from (FIG. 5I). FIG. 5K) Quantification of indicated fluorescence (FACS), cell counts, or transcript expression (FIG. 5LL; whole well RT-qPCR) of cells from (FIG. 5I). Control sorted iAT1s in L are freshly sorted AGERtdTomato+ cells after 9 days in L+DCI. (N=3 per condition; K=Student's t test; L=1 way ANOVA). *p<0.05, **p<0.01, ***p<0.001, and […] for all panels.
(§1) iPSCs were first differentiated into iAT2s and passaged as above in 3D cultures in iAT2 medium (CK+DCI) supplemented for the first 3 days after passaging with 10 uM Y-27632 (Tocris). To generate iAT1s, 3 days after passaging iAT2s in 3D, the medium was replaced with “L+DCI”, consisting of [10 uM LATS-IN-1 (“L”; MedChemExpress Cat. No.: HY-138489), 50 nM dexamethasone (“D”; Sigma-Aldrich), 0.1 mM 8-bromoadenosine 3′,5′cyclic monophosphate sodium salt (Sigma-Aldrich; “C”), and 0.1 mM 3-isobutyl-1-methylxanthine (IBMX; Sigma-Aldrich; “I”)]. Cells were cultured up to 16 days in L+DCI in 3D while monitoring AGERtdTomatoexpression as detailed in the text.
0.05% trypsin was used to generate single cell suspensions which were resuspended in sort buffer [HBSS (ThermoFisher) with 2% FBS, 10 uM Y-27632 (Tocris)] with Live/dead stain [Calcein blue (Life technologies) or DRAQ7 (Abcam)]. Cells were sorted based on reporter expression: NKX2-1GFP and AGERtdTomatofor BU3 NGAT, or SFTPCtdTomatofor SPC2B2, as indicated in the text. Cell sorting was performed on a Moflo Astrios EQ (Beckman Coulter) and flow cytometry analysis was performed on an LSRII SORP (BD Biosciences) at the Boston University Flow Cytometry Core Facility. For Edu assays, the Click-iT Plus EdU Alexa Fluor 647 Flow Cytometry Assay Kit (Thermo Fisher Scientific) was used with EdU added 24 hours before cell isolation, and cells fixed in 4% paraformaldehyde (PFA) were analyzed on a Stratedigm (S1000EXI) cytometer with post-processing using Flow Jo software (BD Biosciences). For all other analyses, live non-fixed cells were sorted or analyzed as indicated in the text.

[2] = test system: iAT2s; test: Withdrawal of Chir or KGF in YAP5SA-transduced BU3 NGAT iAT2s; settings: YAP5SA differentiation model
Source text: FIG. 13A) BU3 NGAT iAT2s were passaged into 3D Matrigel in CK+DCI for 3 days, and then media was switched to media containing LATS-IN-1 and either Chir or KGF and grown for a further 11 days. Representative flow cytometry of NKX2-1GFPand AGERtdTomato. FIG. 13B) Quantification of AGERtdTomatocompared to CK DCI+L and DCI+L quantification in FIGS. 5A-5L. (N=3 per condition, 1 way ANOVA). FIG. 13C) BU3 NGAT iAT2s were transduced with either WT YAP or YAP5SA lentivirus in suspension with polybrene for 4 hours and then replated into 3D Matrigel in CK DCI. After 5 days, media was changed to withdraw one or both growth factors from the media. Cells were analyzed 11 days post media change. FIG. 13D) Cell counts of WT YAP and YAP5SA transduced cells in different medias (2 way ANOVA). First series is CK+DCI, second series is C+DCI, third series is K+DCI, fourth series is DCI. FIG. 13E) Representative flow cytometry of NKX2-1GFP and AGERtdTomato. FIG. 13F) Quantification of AGERtdTomatopercentage and Mean Fluorescence Intensity following YAP5SA transduction. (2 way ANOVA). First series is CK+DCI, second series is C+DCI, third series is K+DCI, fourth series is DCI. FIGS. 13G-13H) Gene expression of AT1 markers, YAP downstream targets, and AT2 markers by whole well RT-qPCR. (N=3, 2 way ANOVA). First series is CK+DCI, second series is C+DCI, third series is K+DCI, fourth series is DCI. […]

[3] = test system: iAT2s; test: Whole well RT-qPCR of AT1/AT2 markers in iAT2s in LATS inhibitor media
Experimental: as §1
For RT-qPCR, whole well or sorted cells were collected and stored in Qiazol (Qiagen, 79306) prior to RNA isolation using RNeasy Plus Mini Kit according to the manufacturer's protocol (Qiagen, 74104), cDNA was then synthesized using MultiScribe™ Reverse Transcriptase (ThermoFisher 4311235). A QuantStudio instrument (Applied Biosciences) and predesigned Taqman probes were used and run in a 384-well format for 40 cycles. Relative expression was normalized to an 18S control and fold change over control cells was calculated using 2-ΔΔCt. Where indicated in the text, RNA extracts from adult primary human distal lung tissue explants, the kind gift of Barry Stripp (Cedars Sinai, Los Angeles) were employed as RT-qPCR controls. RNA was isolated via RNeasy Plus Mini Kit following manufacturer's protocol.

| Molecule | effect on AGERtdTomato percentage and MFI [1] | effect on AGERtdTomato and AT1 markers by bulk RT-qPCR [2] | AGERtdTomato induction, % of the NKX2-1GFP+ cells ([1]; BU3 NGAT iAT2s in L+DCI, increasing over the following 2 weeks) [%] | time to detectable AGERtdTomato induction in the NKX2-1+ population ([1]; L supplementation of iAT2s) [h] | time to morphologic changes resembling YAP5SA-transduced cells ([1]; L supplementation of iAT2s) [hours] | iAT2s in which the AT1 program is driven ([1]; complete serum free defined media containing LATS inhibitor) | dose yielding greatest frequency and brightness (MFI) of NKX2-1GFP/AGERtdTomato+ cells ([1]; dose response testing, medium replaced day 3 after passaging, 2 weeks post passage) [µM] | NKX2-1 expression ([3]; iAT2 media vs medias containing LATS-IN-1) | SFTPC expression ([3]; medias containing LATS-IN-1) | AGER, CAV1, PDPN, and CLIC5 expression ([3]; whole well RT-qPCR, wells containing the LATS inhibitor) |
| --- | --- | --- | --- | --- | --- | --- | --- | --- | --- | --- |
| Cc1c[nH]c(-c2cnc(NCCNc3ccc(C#N)cn3)nc2-c2ccc(Cl)cc2Cl)n1 [Chir, CHIR99021] | significantly inhibitory | inhibitory effects |  |  |  |  |  |  |  |  |
| O=C(N=c1sccn1Cc1ccccc1)c1c[nH]c2ncccc12 [LATS-IN-1, N-(3-benzylthiazol-2(3H)-ylidene)-1H-pyrrolo[2,3-b]pyridine-3-carboxamide] |  |  | 84.97±1.23 | ≤ 72 | ≤ 48 | up to 97% | 10 | unchanged | decreased | significantly upregulated |
| B1 | significantly inhibitory | inhibitory effects |  |  |  |  |  |  |  |  |
